In BindingDB's records for doi:10.1021/jm00102a008 (University of South Florida, 1993):

What follows are molecules tested against T1, Adenosine receptor A1 (Cavia porcellus, UniProt P47745) (assay: Tested for adenosine A1 receptor agonistic activity by determining concentration needed to prolong the stimulus-QRS interval by 50% of the maximum response).
T1 sequence (P47745 whole entry): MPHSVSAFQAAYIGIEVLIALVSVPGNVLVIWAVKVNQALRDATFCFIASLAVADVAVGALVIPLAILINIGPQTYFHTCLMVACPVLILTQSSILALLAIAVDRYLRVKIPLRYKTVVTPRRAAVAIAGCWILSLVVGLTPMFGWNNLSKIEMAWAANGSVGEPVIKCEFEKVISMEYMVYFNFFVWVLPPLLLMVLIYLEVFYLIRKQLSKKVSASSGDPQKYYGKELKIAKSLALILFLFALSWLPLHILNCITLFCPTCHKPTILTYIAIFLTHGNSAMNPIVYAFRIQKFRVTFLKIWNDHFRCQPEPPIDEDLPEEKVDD

| SMILES | EC50 |
| --- | --- |
| Nc1nc(N=NCc2cccs2)nc2c1ncn2C1O[C@H](CO)[C@@H](O)[C@H]1O (some centres not stated) | 41.7 µM |
| Nc1nc(N=NCc2ccccc2Cl)nc2c1ncn2C1O[C@H](CO)[C@@H](O)[C@H]1O (some centres not stated) | 49 µM |
| Nc1nc(N=NCc2ccccc2F)nc2c1ncn2C1O[C@H](CO)[C@@H](O)[C@H]1O (some centres not stated) | 41.7 µM |
| Nc1nc(N=NCCc2ccccc2)nc2c1ncn2C1O[C@H](CO)[C@@H](O)[C@H]1O (some centres not stated) | 83.2 µM |
| Nc1nc(N=NCc2ccccn2)nc2c1ncn2C1O[C@H](CO)[C@@H](O)[C@H]1O (some centres not stated) | 41.7 µM |
| Nc1nc(N=NCc2cccc(Cl)c2)nc2c1ncn2C1O[C@H](CO)[C@@H](O)[C@H]1O (some centres not stated) | 49 µM |
| Nc1nc(N=NCc2ccccc2)nc2c1ncn2C1O[C@H](CO)[C@@H](O)[C@H]1O (some centres not stated) | 83.2 µM |
